The subject of test [1] is MDA-MB231 breast cancer cells. The test can be described thus: Extracellular matrix invasion of MDA-MB231 cells (Matrigel Invasion Chambers). The class given is cell-based, human. As to conditions: siRNA transfection, 22 hours. The method, then: Cytotoxicity and growth of transfected cells were estimated by a standard assay used for cancer drug screening, through the total amount of TCA-precipitated cell proteins after drug treatment (Likhitwitayawuid, K et al., 1993, J Nat Prod 56:30-38): 200 μl of cell suspension (10^5 cells/ml) were added to each well in a 96-well plate. After incubation at, 37° C., in 5% CO2 (30 minutes to 72 hours depending on the time course chosen), 50 μl 50% trichloroacetic acid was added to each well. After incubation at 4° C. for 1 hour, precipitates were washed with water 4-5 times and air dried overnight. One hundred μl of SRB solution (0.4% sulforhodamine B in 1% acetic acid, filtered before use) was added to each well for 30 minutes. Wells were washed with 1% acetic acid 4-5 times and air dried. Two hundred μl 10 mM Tris base was added to each well. Plates were shaken for 5-10 minutes and OD at 490 nm (OD490) was recorded via ELISA reader. To assay matrix invasion, 300 μl of cell suspension (10^6 cells/mL in serum-free medium) were added to invasion inserts (BioCoat Matrigel Invasion Chambers, Becton Dickinson, Bedford, Mass.) and incubated for 22 hours at 37° C., 5% CO2. Cells were stained with 0.9% crystal violet in 10% ethanol for 20 minutes. Inserts were dipped in water several times and air dried. After removal of the non-invading cells from the interior of the inserts, stained invading cells were lysed in 10% acetic acid and OD595 was determined.
Notch silencing was confirmed by Western blot as described above in Example 15 using commercial goat polyclonal antibodies from Santa Cruz Biotechnology to Notch-1 (C-20, Cat# sc-6014 S). For the Western blot analyses, MDA-MB231 cells were treated with 25 μM IL-X for 48 h or with 0.5, 1 or 2 μM z-Leu-Leu-Nle-CHO for 24 h. Cytotoxicity and matrix invasion assays were performed as described above in Example 15. For the cytotoxicity assays, MDA-MB231 cells were treated with […] IL-X for up to 3 days or with 0-20 μM z-Leu-Leu-Nle-CHO for up to 4 days. […]

Test [2] has as its system Human Mammary Epithelial Cells (HMEC). The experiment in a line: Proliferation of normal breast cells (HMEC) after siRNA. In kind it is cell-based. The conditions noted are these: siRNA transfection. On the procedure:
An invasive, estrogen-independent breast cancer cell line that spontaneously expresses high levels of Notch-1 and -4, MDA-MB231, and normal human breast cells were used to investigate whether inhibition of Notch activation or expression affects the biological behavior of breast cancer cells. […] Sequence specificity was determined by BLAST searches which determined the uniqueness of the sequences. […] Transfected cells were identified by Streptavidin-horseradish peroxidase staining (Vectastain) and counted. […]
Cytotoxicity and growth of transfected cells were estimated by a standard assay used for cancer drug screening, through the total amount of TCA-precipitated cell proteins after drug treatment (Likhitwitayawuid, K et al., 1993, J Nat Prod 56:30-38): 200 μl of cell suspension (10^5 cells/ml) were added to each well in a 96-well plate. […] Plates were shaken for 5-10 minutes and OD at 490 nm (OD490) was recorded via ELISA reader. […] After removal of the non-invading cells from the interior of the inserts, stained invading cells were lysed in 10% acetic acid and OD595 was determined.

The subject of another test is C8161 melanoma tumors. The test can be described thus: C8161 melanoma xenograft in Nude mice, peri-tumoral bortezomib.
The test system of a further test is SK-MeI-28 melanoma cells. The experiment in a line: Dosing study versus chemotherapeutic agents, killing of SK-MeI-28 melanoma cells. In kind it is cell-based, human. The conditions noted are these: SK-MeI-28, mutated p53. On the procedure:
An initial dosing study comparing z-Leu-Leu-Nle-CHO against three different chemotherapeutic agents (i.e., adriamycin, etoposide, and cisplatin) was performed to evaluate the relative effectiveness of z-Leu-Leu-Nle-CHO in killing melanoma cells. In agreement with a previous report by Soengas, M. S. et al., 2001, Nature 409.207-211, SK-MeI-28 cells, carrying a mutated p53, were relatively resistant to killing by adriamycin, as well as to killing by other chemotherapeutic agents. For SK-MeI-28 melanoma cells, the maximal apoptotic response for adriamycin, etoposide, cisplatin, and z-Leu-Leu-Nle-CHO was 12.0%, 2.6%, 4.0%, and 29.4%, respectively. For RJ002L melanoma cells, the maximal apoptotic response for adriamycin, etoposide, cisplatin, and z-Leu-Leu-Nle-CHO was 23.9%, 12.7%, 3.4%, and 45.7%, respectively.

Test [3] relates to T47D:C42 breast cancer cells. The test can be described thus: z-Leu-Leu-Nle-CHO plus Paclitaxel, growth inhibition of T47D:C42 cells. In kind it is cell-based, human. The conditions noted are these: 0-0.8 μM with Paclitaxel, 48 h. On the procedure:
Three different types of breast cancer cells were contacted with varying concentrations of z-Leu-Leu-Nle-CHO (0-0.8 μM) and the mitotic poison Paclitaxel (0.01-1 μM). MDA-MB231 cells were obtained from ATCC (Rockville, Md.). T47D:C42 and T47D:A18 cells were a kind gift of Debra Tonetti (University of Illinois-Chicago). MDA-MB231 cells were cultured in DMEM medium with 10% FBS. T47D:C42 and T47D:A18 cells were propagated in RPMI 1640 with 10% FBS, 100 μM non-essential amino acid and 6 ng/ml insulin. Gamma-secretase inhibitor z-Leu-Leu-Nle-CHO (Calbiochem 565750) was dissolved in DMSO, aliquoted and stored at −80° C. Paclitaxel (Sigma, St. Louis Mo.) was dissolved in DMSO, aliquoted and stored at −80° C.
To determine whether z-Leu-Leu-Nle-CHO treatment potentiates the effect of Paclitaxel on human breast cancer cells, MDA-MB231, T47D:C42 and T47D:A18 cells were treated for 48 h with 0-0.8 μM z-Leu-Leu-Nle-CHO and various concentrations of Paclitaxel (0.008-1 μM) Following the z-Leu-Leu-Nle-CHO and Paclitaxel treatment, the cells were tested for growth inhibition as described above in Example 13.

Square brackets hold non-standard residues; d marks the D form. Peptide text beside a SMILES is read from it. * marks the point of attachment. Nle = CCCC[C@H](N)C(=O)O; Cbz = O=C(OCc1ccccc1)*

Take “5′-AAGTGTCTGAGGCCAGCAAGA-3′ [Notch-1 siRNA]”: in test [1], the extracellular matrix invasion entry is reported as “significantly inhibited extracellular matrix invasion”. The proliferation entry in test [2] is reported as “inhibits proliferation of normal breast cells”.

Take `CC(C)C[C@H](NC(=O)[C@H](Cc1ccccc1)NC(=O)c1cnccn1)B(O)O` [bortezomib, N-(2-pyrazine)carbonyl-L-phenylalanine-L-leucine boronic acid]: the tumor growth entry in the test with C8161 melanoma tumors (1.25 mg/kg or 2.5 mg/kg, four peri-tumoral injections, compared to PBS) is listed as “regression of melanoma tumors occurred”. The tumor weight entry is given as “significant (p<0.01) reduction in tumor weight” with C8161 melanoma tumors (1.25 mg/kg versus PBS, day 20) and “no further reduction was apparent” in the test with C8161 melanoma tumors (2.5 mg/kg dose compared with 1.25 mg/kg). In addition, the “histological appearance of tumor (H&E)” value with C8161 melanoma tumors (2.5 mg/kg) is on record as “scattered apoptotic C8161 cells are present”.

For the molecule `CCCC[C@@H](C=O)NC(=O)[C@H](CC(C)C)NC(=O)[C@H](CC(C)C)NC(=O)OCc1ccccc1` [z-Leu-Leu-Nle-CHO, N-benzyloxycarbonyl-leucyl-leucyl-norleucinal] (Cbz-Leu-Leu-[Nle]-aldehyde), the maximal apoptotic response with SK-MeI-28 melanoma cells is given as 29.4%. The “effect on Paclitaxel cell growth inhibition” value in test [3] is “potentiated the effects of Paclitaxel on cell growth inhibition”.

The record behind these values is patent US20080220416A1, “Compositions for Inhibiting Cell Growth and Inducing Apoptosis in Cancer Cells and Methods of Use Thereof” (THE BOARD OF TRUSTEES OF THE UNIVERSITY OF ILLINOI, priority 2004, published 2008).
